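Following 48 hours of exposure in 96-well plates, responses at five concentrations were used to interpolate endpoints linearly. GI50: concentration for 50% inhibition of growth.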 Active and inactive are the calls of the source. No stated cut-off is given here; in the data, active = GI50 up to about 1.1 µM and inactive = higher.
Tests used:
Experiment in all cases: NCI tumour cell line growth inhibition, 48 h
[1] = test system: BT-549
[2] = test system: NCI-H23
[3] = test system: TK-10
[4] = test system: HL-60
[5] = test system: EKVX
[6] = test system: 786-0
[7] = test system: CCRF-CEM
[8] = test system: T47D
[9] = test system: NCI/ADR-RES
[10] = test system: IGROV-1
[11] = test system: LOX IMVI
[12] = test system: OVCAR-4
[13] = test system: NCI-H226
[14] = test system: PC-3
[15] = test system: MDA-N
[16] = test system: CAKI-1
[17] = test system: SR
[18] = test system: NCI-H522
[19] = test system: A549
[20] = test system: DU-145

Structure (SMILES) | GI50 [1] | GI50 [2] | GI50 [3] | GI50 [4] | GI50 [5] | GI50 [6] | GI50 [7] | GI50 [8] | GI50 [9] | GI50 [10] | GI50 [11] | GI50 [12] | GI50 [13] | GI50 [14] | GI50 [15] | GI50 [16] | GI50 [17] | GI50 [18] | GI50 [19] | GI50 [20]
Nc1ccc(-c2nc3ccccc3s2)cc1C#Cc1ccccc1 | 17.1 µM (inactive) | 20.9 µM (inactive) | 13.9 µM (inactive) | 26.5 µM (inactive) | 20.7 µM (inactive) | 17.7 µM (inactive) | 29.2 µM (inactive) | 27 µM (inactive) | 21.4 µM (inactive) | 10.7 µM (inactive) | 19 µM (inactive) | 20.6 µM (inactive) | 20.1 µM (inactive) | 18.5 µM (inactive) | 17.9 µM (inactive) | 15.8 µM (inactive) | 37.5 µM (inactive) | 18.9 µM (inactive) | 22.6 µM (inactive) | 23.8 µM (inactive)
COCOc1c(C(OCOC)c2cnc(Sc3ccccc3)n2C)ccc(OC)c1OC (centres undefined) | > 100 µM (inactive) | > 100 µM (inactive) | > 100 µM (inactive) | > 100 µM (inactive) | > 100 µM (inactive) | > 100 µM (inactive) | > 100 µM (inactive) | 82.2 µM (inactive) | 94.4 µM (inactive) | > 100 µM (inactive) | > 100 µM (inactive) | > 100 µM (inactive) | 76.7 µM (inactive) | > 100 µM (inactive) | > 100 µM (inactive) | > 100 µM (inactive) | 52.5 µM (inactive) | 90.8 µM (inactive) | > 100 µM (inactive) | > 100 µM (inactive)
COC(=O)c1cccc(OC)c1C#Cc1c(OC)cccc1OC | > 100 µM (inactive) | > 100 µM (inactive) | > 100 µM (inactive) | > 100 µM (inactive) | > 100 µM (inactive) | > 100 µM (inactive) | > 100 µM (inactive) | 76.2 µM (inactive) | > 100 µM (inactive) | > 100 µM (inactive) | > 100 µM (inactive) | 54.1 µM (inactive) | > 100 µM (inactive) | > 100 µM (inactive) | 53.2 µM (inactive) | > 100 µM (inactive) | > 100 µM (inactive) | 0.47 µM (active) | > 100 µM (inactive) | > 100 µM (inactive)
Cc1nc2sc3ccccc3n2c(=O)c1/N=N/c1ccc(Cl)cc1 | > 100 µM (inactive) | > 100 µM (inactive) | > 100 µM (inactive) | > 100 µM (inactive) | > 100 µM (inactive) | > 100 µM (inactive) | > 100 µM (inactive) | > 100 µM (inactive) | > 100 µM (inactive) | > 100 µM (inactive) | > 100 µM (inactive) | > 100 µM (inactive) | > 100 µM (inactive) | > 100 µM (inactive) | > 100 µM (inactive) | > 100 µM (inactive) | > 100 µM (inactive) | > 100 µM (inactive) | > 100 µM (inactive) | > 100 µM (inactive)
O=C(N(C1=CCCC1)N(c1ccccc1)c1ccccc1)C(F)(F)F | 29.9 µM (inactive) | 30.4 µM (inactive) | 39.9 µM (inactive) | 20.3 µM (inactive) | 17.5 µM (inactive) | 27.7 µM (inactive) | 23.4 µM (inactive) | 17 µM (inactive) | 28.8 µM (inactive) |  | 15.8 µM (inactive) | 25.4 µM (inactive) | 19.7 µM (inactive) | 30.3 µM (inactive) | 23.9 µM (inactive) | 20.2 µM (inactive) | 31 µM (inactive) | 10.4 µM (inactive) | 26.4 µM (inactive) | 30.8 µM (inactive)
CC1C2CC(CC23OCC(CCl)O3)C1(C)C (centres undefined) | > 100 µM (inactive) | > 100 µM (inactive) | > 100 µM (inactive) | > 100 µM (inactive) | > 100 µM (inactive) | > 100 µM (inactive) | > 100 µM (inactive) | > 100 µM (inactive) | > 100 µM (inactive) | > 100 µM (inactive) | > 100 µM (inactive) | > 100 µM (inactive) | > 100 µM (inactive) | > 100 µM (inactive) | > 100 µM (inactive) | > 100 µM (inactive) | > 100 µM (inactive) | > 100 µM (inactive) | > 100 µM (inactive) | > 100 µM (inactive)
COC(=O)C1CCC(=O)N1C(c1ccccc1)c1ccc(OC)c(OC)c1 (centres undefined) | > 100 µM (inactive) | > 100 µM (inactive) | > 100 µM (inactive) | > 100 µM (inactive) | > 100 µM (inactive) | > 100 µM (inactive) | > 10 µM (inactive) | > 100 µM (inactive) | > 100 µM (inactive) | > 100 µM (inactive) | > 100 µM (inactive) | > 100 µM (inactive) | > 100 µM (inactive) | > 100 µM (inactive) | > 100 µM (inactive) | > 100 µM (inactive) | > 100 µM (inactive) | > 100 µM (inactive) | > 100 µM (inactive) | > 100 µM (inactive)
